Measurements from article PMC5379069, “A Pseudomonas T6SS effector recruits PQS-containing outer membrane vesicles for iron acquisition” (Nature Communications, 2017).

Columns and labels:
TseF (PA2374) [1] = biological target: T1, TseF (PA2374) (Pseudomonas aeruginosa, UniProt Q9I1A5); experiment: ITC; also fat western blot; type: binding
TseF (PA2374) [2] = biological target: T1, TseF (PA2374); experiment: ITC; also immobilized-PQS pull-down and fat western blot; Kd […] with Fe3+; type: binding

T1 sequence (Q9I1A5 entry or part of it): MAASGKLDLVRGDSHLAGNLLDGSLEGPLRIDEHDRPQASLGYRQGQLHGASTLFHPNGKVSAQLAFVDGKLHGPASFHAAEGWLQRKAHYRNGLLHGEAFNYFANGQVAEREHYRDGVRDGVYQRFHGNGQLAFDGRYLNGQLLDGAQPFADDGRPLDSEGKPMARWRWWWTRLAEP

Row | Compound | Kd (TseF (PA2374) [1]) | Kd (TseF (PA2374) [2])
1 | CCCCCCCc1cc(O)c2ccccc2n1 [HHQ, 4-hydroxy-2-heptylquinoline] | 25.7 µM | 
2 | CCCCCCCc1[nH]c2ccccc2c(=O)c1O [PQS, 2-heptyl-3-hydroxy-4-quinolone] |  | 0.33 µM
